Data from patent US20040057961A1, “Human t cell response to mhc-binding motif clusters” (priority 2000, published 2004).

Assays:
[1] = system: peripheral blood mononuclear cells from Mtb-immune (PPD skin-test positive) subjects; test: Lymphoproliferation assay ([3H]thymidine, stimulation index) with PBMC of Mtb-immune subjects; type: cell-based, human; conditions: for number of Mtb-immune responders (proliferative response SI≧2.0): all Mtb-immune subjects; for Phil % responders (n = 38) / Phil # responders (n = 38): Philippines cohort; for Phil % responders (n = 38) / Phil # responders (n = 38) / Prov % responders (n = 22) / Prov # responders (n = 22): response positive if SI≧2.0; for Phil # responders (n = 38) / Prov # responders (n = 22): peptide 1 and 10 μg/ml; for Prov % responders (n = 22) / Prov # responders (n = 22): Providence cohort
[2] = system: peripheral blood mononuclear cells from Mtb-naive (PPD skin-test negative) subjects; test: Lymphoproliferation assay ([3H]thymidine, stimulation index) with PBMC of Mtb-naive subjects; type: cell-based, human; conditions: n=19

Q: For phytohemagglutinin [reference compound], which “response to mitogen in words” value ([1]; 1 μg/ml, the 41 subjects who were tested (both groups)) is on record?
A: robust response

Q: “SVVMPVGGQSSFYSDW (listed as Mycobacterium tuberculosis) [32-3, 32 kDa Mtb protein, amino acids 67-82]” was tested. Which “number of Mtb-immune responders (proliferative response SI≧2.0)” value (“number of Mtb-immune responders” below) ([1]; n=40) did it give?
A: only a few

Q: With “RSLFPEFSELFAAFPSFAGL (listed as Mycobacterium tuberculosis) [16-1, 16 kDa Mtb protein, amino acids 11-30]” as the substance, how does the “Phil % responders (n = 38)” value [1] read?
A: 10%

Q: And the “Phil # responders (n = 38)” value [1]?
A: 4

Q: What about the “Prov % responders (n = 22)” value [1] of the same substance?
A: 5%

Q: What about the “Prov # responders (n = 22)” value [1] of the same substance?
A: 2

Q: What about the “number of Mtb-immune responders” value ([1]; n=40) of the same substance?
A: six

Q: Which “number of Mtb-immune responders” value ([1]; n=40) does the source give for “LAIYHPQQFVYAGAMSGLLD (listed as Mycobacterium tuberculosis) [32-7, 32 kDa Mtb protein, amino acids 135-154]” here?
A: six

Q: Which results are given for “MLGNAPSVVPNTTLGMHC (listed as Mycobacterium tuberculosis) [14-1, 14 kDa Mtb protein, amino acids 1-18]”?
A: Phil % responders (n = 38) [1]: 5%; Phil # responders (n = 38) [1]: 2; Prov % responders (n = 22) [1]: 5%; Prov # responders (n = 22) [1]: 2

Q: Which “number of Mtb-immune responders” value ([1]; n=40) does the source give for “AELPGVDPDKDVD (listed as Mycobacterium tuberculosis) [16-3, 16 kDa Mtb protein, amino acids 54-66]” here?
A: one

Q: For “KFLEGFVRTSNIKFQD (listed as Mycobacterium tuberculosis) [32-9, 32 kDa Mtb protein, amino acids 227-242]”, which “number of Mtb-immune responders” value ([1]; n=40) is on record?
A: six

Q: Which “Mtb-immune subjects showing a proliferative response in vitro” value ([1]; control antigen 5 μg/ml, n=40) does the source give for “TT: tetanus toxoid, control antigen (Connaught) [reference compound]” here?
A: All but six

Q: And the “stimulation index (SI) range” value ([1]; control antigen 5 μg/ml, range over responding subjects)?
A: 2-182

Q: And the “Mtb-naive controls not showing a proliferative response” value ([2]; control antigen 5 μg/ml)?
A: one

Q: For “VGLSMAASSALTLAIYHPQQ (listed as Mycobacterium tuberculosis) [32-6, 32 kDa Mtb protein, stop at amino acid 142]”, which “number of Mtb-immune responders” value ([1]; n=40) is on record?
A: six

Q: For LAIGGAATGIAAVLTDGNPP [19-3], which “number of Mtb-immune responders” value ([1]; n=40) is on record?
A: six

Q: Which “Phil % responders (n = 38)” value [1] does the source give for “LKLGLVEFGGVAKLNAEVMS (listed as Mycobacterium tuberculosis) [14-3, 14 kDa Mtb protein, amino acids 30-49]” here?
A: 8%

Q: What about the “Phil # responders (n = 38)” value [1] of the same substance?
A: 3

Q: What about the “Prov % responders (n = 22)” value [1] of the same substance?
A: 10%

Q: And the “Prov # responders (n = 22)” value [1]?
A: 4

Q: And the “number of Mtb-immune responders” value ([1]; n=40)?
A: six

Q: Which results are given for “VSETISGPRLYGEMTMQGTR (listed as Mycobacterium tuberculosis) [14-6, 14 kDa Mtb protein, amino acids 80-99]”?
A: Phil % responders (n = 38) [1]: 3%; Phil # responders (n = 38) [1]: 1; Prov % responders (n = 22) [1]: 3%; Prov # responders (n = 22) [1]: 1

Q: What does the source list for “CEVWSNVSETISGPRLYGEM (listed as Mycobacterium tuberculosis) [14-5, 14 kDa Mtb protein, amino acids 74-93]”?
A: Phil % responders (n = 38) [1]: 5%; Phil # responders (n = 38) [1]: 2; Prov % responders (n = 22) [1]: 5%; Prov # responders (n = 22) [1]: 2

Q: Which results are given for “PLLNVGKLIANNTRVWVY (listed as Mycobacterium tuberculosis) [32-8, 32 kDa Mtb protein, amino acids 193-210]”?
A: % responders among Mtb-immune subjects ([1]; n=40): 25%; Mtb-naive controls that responded [2]: none

Q: How did the “% responders among Mtb-immune subjects” value ([1]; n=40) turn out when “FAYGSFVRTVSLPVGA (listed as Mycobacterium tuberculosis) [16-5, 16 kDa Mtb protein, amino acids 92-107]” was run?
A: 28%

Q: What about the “number of Mtb-immune responders” value ([1]; n=40) of the same substance?
A: six

Q: What about the “Mtb-naive controls that responded” value [2] of the same substance?
A: none

Q: “FSELFAAFPSFAGLRPTFDT [16-2, 16 kDa Mtb protein, amino acids 17-36]” was tested. Which “Phil % responders (n = 38)” value [1] did it give?
A: 10%

Q: What about the “Phil # responders (n = 38)” value [1] of the same substance?
A: 4

Q: What about the “Prov % responders (n = 22)” value [1] of the same substance?
A: 3%

Q: And the “Prov # responders (n = 22)” value [1]?
A: 1

Q: For “GSFGSAPSNGWLKLGLVEFG (listed as Mycobacterium tuberculosis) [14-2, 14 kDa Mtb protein, amino acids 19-38]”, which “Phil % responders (n = 38)” value [1] is on record?
A: 15%

Q: What about the “Phil # responders (n = 38)” value [1] of the same substance?
A: 6

Q: And the “Prov % responders (n = 22)” value [1]?
A: 8%

Q: What about the “Prov # responders (n = 22)” value [1] of the same substance?
A: 3

Q: And the “number of Mtb-immune responders” value ([1]; n=40)?
A: six

Q: Which “number of Mtb-immune responders” value ([1]; n=40) does the source give for QNVTGSVVCTTAAGNVN [19-2] here?
A: six

Q: “QAVMLGTGTPNRA (listed as Mycobacterium tuberculosis) [14-4, 14 kDa Mtb protein, amino acids 56-68]” was tested. Which “Phil % responders (n = 38)” value [1] did it give?
A: 8%

Q: What about the “Phil # responders (n = 38)” value [1] of the same substance?
A: 3

Q: What about the “Prov % responders (n = 22)” value [1] of the same substance?
A: 3%

Q: What about the “Prov # responders (n = 22)” value [1] of the same substance?
A: 1

Q: “RHVKPTGSAVVGLSMAASSA [32-5, 32 kDa Mtb protein, amino acids 113-132]” was tested. Which “number of Mtb-immune responders” value ([1]; n=40) did it give?
A: six
